Experimental data from ChEMBL document CHEMBL5512647, “Cajaninstilbene acid derivatives conjugated with siderophores of 3-hydroxypyridin-4(1H)-ones as novel antibacterial agents against Gram-negative bacteria based on the Trojan horse strategy” (Eur J Med Chem, 2024).
Values after ≈ are worked out from the molar mass of the structure shown. Active and inactive are the calls of the source. The calls are words filed in the database; no cut-off is given here.

Tests used:
Pseudomonas aeruginosa [1] = experiment: Antibacterial activity against Pseudomonas aeruginosa 1121 measured after 18 to 20 hrs by broth microdilution method; type: functional; details: time 18-20 hrs
Escherichia coli [2] = experiment: Antibacterial activity against Escherichia coli ATCC 25922 measured after 18 to 20 hrs by broth microdilution method; type: functional; details: time 18-20 hrs
Pseudomonas aeruginosa [3] = experiment: Antibacterial activity against Pseudomonas aeruginosa FB measured after 18 to 20 hrs by broth microdilution method; type: functional; details: time 18-20 hrs
Pseudomonas aeruginosa [4] = experiment: Antibacterial activity against Pseudomonas aeruginosa PAO1 measured after 18 to 20 hrs by broth microdilution method; type: functional; details: time 18-20 hrs
Staphylococcus aureus = experiment: Antibacterial activity against Staphylococcus aureus ATCC 25923 measured after 18 to 20 hrs by broth microdilution method; type: functional; details: time 18-20 hrs
Klebsiella pneumoniae [5] = experiment: Antibacterial activity against Klebsiella pneumoniae ATCC 700603 measured after 18 to 20 hrs by broth microdilution method; type: functional; details: time 18-20 hrs
Pseudomonas aeruginosa [6] = experiment: Antibacterial activity against Pseudomonas aeruginosa 27853 measured after 18 to 20 hrs by broth microdilution method; type: functional; details: time 18-20 hrs
[7] = Cytotoxicity against African green monkey Vero cells at 100 uM measured after 24 hrs by MTT assay; type: toxicity, cell-based; details: chlorocebus sabaeus
Pseudomonas aeruginosa [8] = experiment: Antibacterial activity against Pseudomonas aeruginosa PAO1 measured after 18 to 20 hrs in presence of FeIII cultured under CAA medium by broth microdilution method; type: functional; details: time 18-20 hrs
Cell membrane [9] = experiment: Induction of outer membrane permeabilization in Pseudomonas aeruginosa PAO1 assessed as increase in accumulation of NPN by measuring fluorescence intensity measured for 1 hr by NPN dye uptake assay; type: cell membranes
[10] = Cytotoxicity against African green monkey Vero cells at 50 uM measured after 24 hrs by MTT assay; type: toxicity, cell-based; details: chlorocebus sabaeus
Pseudomonas aeruginosa [11] = experiment: Antibacterial activity against Pseudomonas aeruginosa PAO1 infected in Caenorhabditis elegans assessed as survival rate at 12.5 to 50 uM measured upto 72 hrs relative to control; type: functional; details: dose 12.5-50 µM
Pseudomonas aeruginosa [12] = experiment: Antibacterial activity against Pseudomonas aeruginosa 27853 measured after 18 to 20 hrs in presence of FeIII cultured under CAA medium by broth microdilution method; type: functional; details: time 18-20 hrs
Pseudomonas aeruginosa [13] = experiment: Antibacterial activity against Pseudomonas aeruginosa PAO1 infected in Caenorhabditis elegans assessed as improvement in survival rate at 12.5 to 50 uM measured upto 72 hrs; type: functional, organism-based; details: dose 12.5-50 µM
Pseudomonas aeruginosa [14] = experiment: Antibacterial activity against Pseudomonas aeruginosa PAO1 delta-pvds measured after 18 to 20 hrs by broth microdilution method; type: functional, organism-based; details: time 18-20 hrs
Cell membrane [15] = experiment: Induction of cytoplasmic membrane permeabilization in Pseudomonas aeruginosa PAO1 assessed as disruption of cell membrane integrity by measuring increase in number of dead cells measured after 2 hrs by PI and SYTO9 staining based confocal laser scanning microscopy analysis; type: cell membranes
Escherichia coli [16] = experiment: Antibacterial activity against Escherichia coli ATCC 25922 measured after 18 to 20 hrs in presence of FeIII cultured under CAA medium by broth microdilution method; type: functional; details: time 18-20 hrs
[17] = Acute toxicity in L4 stage of Caenorhabditis elegans at 12.5 to 50 uM; details: dose 12.5-50 µM
Erythrocyte = experiment: Hemolytic activity in rabbit red blood cells assessed as hemolysis at 12.5 to 50 uM measured after 2 hrs by microplate reader based analysis; type: toxicity, cell-based, Oryctolagus cuniculus; details: dose 12.5-50 µM
Pseudomonas aeruginosa [18] = experiment: Antibacterial activity against Pseudomonas aeruginosa PAO1 overexpressing fpvA mutant assessed as fold increase in MIC measured after 18 to 20 hrs by broth microdilution method; type: functional; details: time 18-20 hrs
[19] = Metal chelating activity assessed as compound-Fe3+ complex formation incubated for 10 mins by CAS assay
Klebsiella pneumoniae [20] = experiment: Antibacterial activity against Klebsiella pneumoniae ATCC 700603 measured after 18 to 20 hrs in presence of FeIII cultured under CAA medium by broth microdilution method; type: functional; details: time 18-20 hrs
Pseudomonas aeruginosa [21] = experiment: Antibacterial activity against Pseudomonas aeruginosa PAO1 infected in Caenorhabditis elegans assessed as improvement in survival rate at 50 uM measured after 72 hrs; type: functional, organism-based

| Structure (SMILES) | MIC (Pseudomonas aeruginosa [1]) [µM] | MIC (Escherichia coli [2]) [µM] | MIC (Pseudomonas aeruginosa [3]) [µM] | MIC (Pseudomonas aeruginosa [4]) [µM] | MIC (Staphylococcus aureus) [µM] | MIC (Klebsiella pneumoniae [5]) [µM] | MIC (Pseudomonas aeruginosa [6]) [µM] | other results |
| --- | --- | --- | --- | --- | --- | --- | --- | --- |
| CC(C)=CCc1c(OCCCCCCC(=O)NCc2cc(=O)c(O)cn2C)cc(/C=C/c2ccc(F)cc2)c(C(=O)O)c1O | 15.6 (≈ 9.46 µg/mL) | > 250 | 31.2 (≈ 19 µg/mL) | 7.8 (≈ 4.73 µg/mL) | > 250 | > 250 | 15.6 (≈ 9.46 µg/mL) | Activity [7]: Toxic; MIC (Pseudomonas aeruginosa [8]): > 250 µM; Activity (Cell membrane [9]): Dose-Dependent Effect; Activity [10]: Non-Toxic; Survival (Pseudomonas aeruginosa [11]): 50%; MIC (Pseudomonas aeruginosa [12]): > 250 µM; Activity (Pseudomonas aeruginosa [13]): Active; Activity (Pseudomonas aeruginosa [14]): Active; Activity (Cell membrane [15]): Dose-Dependent Effect; MIC (Escherichia coli [16]): > 250 µM; Activity [17]: Non-Toxic; Activity (Erythrocyte): Non-Toxic; fold change (FC) (Pseudomonas aeruginosa [18]): 4; Activity [19]: Active; MIC (Klebsiella pneumoniae [20]): > 250 µM |
| CC(C)=CCc1c(OCCCCCCC(=O)NCc2c(O)c(=O)cc(C)n2C)cc(/C=C/c2ccc(F)cc2)c(C(=O)O)c1O | > 250 | > 250 | > 250 | 7.81 (≈ 4.85 µg/mL) | > 250 | > 250 | > 250 |  |
| COc1cc(/C=C/c2ccc(F)cc2)c(C(=O)O)c(O)c1CC=C(C)C | > 250 | > 250 | > 250 | > 250 | 15.6 (≈ 5.56 µg/mL) | > 250 | > 250 | MIC (Pseudomonas aeruginosa [8]): > 250 µM; Activity [10]: Non-Toxic; MIC (Pseudomonas aeruginosa [12]): > 250 µM; MIC (Escherichia coli [16]): > 250 µM; Activity [19]: inactive; Activity (Pseudomonas aeruginosa [21]): inactive; MIC (Klebsiella pneumoniae [20]): > 250 µM |
| CC(C)=CCc1c(OCc2cn(CCCn3cc(O)c(=O)cc3C)nn2)cc(/C=C/c2ccc(F)cc2)c(C(=O)O)c1O | > 250 | > 250 | > 250 | 31.2 (≈ 18.4 µg/mL) | > 250 | > 250 | 31.2 (≈ 18.4 µg/mL) |  |
| CC(C)=CCc1c(OCCCCCCC(=O)NCc2cc(=O)c(O)cn2C)cc(CSc2ccc(F)cc2)c(C(=O)O)c1O | > 250 | > 250 | > 250 | 7.8 (≈ 4.89 µg/mL) | > 250 | > 250 | > 250 |  |
| CC(C)=CCc1c(OCCCCCCCC(=O)NCc2c(O)c(=O)cc(C)n2C)cc(/C=C/c2ccc(F)cc2)c(C(=O)O)c1O | > 250 | > 250 | > 250 | > 250 | > 250 | > 250 | > 250 |  |

Second part, led by results:

| MIC (Pseudomonas aeruginosa [1]) [µM] | MIC (Escherichia coli [2]) [µM] | MIC (Pseudomonas aeruginosa [3]) [µM] | MIC (Pseudomonas aeruginosa [4]) [µM] | MIC (Staphylococcus aureus) [µM] | MIC (Klebsiella pneumoniae [5]) [µM] | MIC (Pseudomonas aeruginosa [6]) [µM] | Structure (SMILES) | other results |
| --- | --- | --- | --- | --- | --- | --- | --- | --- |
| > 250 | > 250 | > 250 | 7.8 (≈ 4.95 µg/mL) | > 250 | > 250 | 31.2 (≈ 19.8 µg/mL) | CCCn1cc(O)c(=O)cc1CNC(=O)CCCCCCOc1cc(/C=C/c2ccc(F)cc2)c(C(=O)O)c(O)c1CC=C(C)C |  |
| 31.2 (≈ 18.5 µg/mL) | > 250 | > 250 | 31.2 (≈ 18.5 µg/mL) | > 250 | > 250 | 31.2 (≈ 18.5 µg/mL) | CC(C)=CCc1c(OCCCCCC(=O)NCc2cc(=O)c(O)cn2C)cc(/C=C/c2ccc(F)cc2)c(C(=O)O)c1O |  |
| 250 (≈ 144 µg/mL) | > 250 | 250 (≈ 144 µg/mL) | 125 (≈ 71.8 µg/mL) | > 250 | > 250 | 62.5 (≈ 35.9 µg/mL) | CC(C)=CCc1c(OCc2cn(CCn3cc(O)c(=O)cc3C)nn2)cc(/C=C/c2ccc(F)cc2)c(C(=O)O)c1O |  |
| > 250 | > 250 | > 250 | > 250 | > 250 | > 250 | > 250 | CC(C)=CCc1c(OCCCCCCC(=O)NCc2c(O)c(=O)cc(C)n2C)cc(CSc2ccc(F)cc2)c(C(=O)O)c1O |  |
| > 250 | > 250 | > 250 | > 250 | > 250 | > 250 | > 250 | CC(C)=CCc1c(OCCCCCCCC(=O)NCc2c(O)c(=O)cc(C)n2C)cc(CSc2ccc(F)cc2)c(C(=O)O)c1O |  |
| > 250 | > 250 | > 250 | > 250 | 62.5 (≈ 23.5 µg/mL) | > 250 | > 250 | COc1cc(CSc2ccc(F)cc2)c(C(=O)O)c(O)c1CC=C(C)C |  |
| 31.2 (≈ 18.1 µg/mL) | > 250 | 31.2 (≈ 18.1 µg/mL) | 31.2 (≈ 18.1 µg/mL) | > 250 | > 250 | 31.2 (≈ 18.1 µg/mL) | CC(C)=CCc1c(OCCCCC(=O)NCc2cc(=O)c(O)cn2C)cc(/C=C/c2ccc(F)cc2)c(C(=O)O)c1O |  |
